Results as given in patent US20240058443A1, “PREVENTION OR MITIGATION OF NK CELL ENGAGING AGENT-RELATED ADVERSE EFFECTS” (Hoffmann-La Roche Inc., priority 2021, published 2024).

Tests used:
[1] = system: cytokine release induced via FcγR signaling; experiment: Whole blood assay: obinutuzumab-induced cytokine release, serum cytokines analyzed by Luminex; assay type: cell-based; details: for cytokine release induced by an NK cell engaging antibody: summary statement of the description, no conditions given; for levels of IFN-γ: FIG. 2A; for levels of TNF-α: FIG. 2C; for levels of MCP-1: FIG. 2F; for cytokine release: overall statement, whole blood, obinutuzumab
Method: FIG. 2. Effect of 100 nM ruxolitinib (ruxo), 100 nM sirolimus (siro), 100 nM dasatinib (dasa) on obinutuzumab-induced IFN-γ (FIG. 2A), IL-2 (FIG. 2B), TNF-α (FIG. 2C), IL-6 (FIG. 2D), IL-8 (FIG. 2E) and MCP-1 (FIG. 2F) for 100, 10, 1 and 0.1 μg/mL obinutuzumab in a whole blood assay. Fresh whole blood was incubated with 100, 10, 1 and 0.1 μg/mL obinutuzumab or PGLALA IgG in the presence and absence of 100 nM ruxolitinib, 100 nM sirolimus and 100 nM dasatinib for 48 hours. The PGLALA IgG has a silent Fc region and is a negative control. At 24 hours, serum was collected and cytokines were analyzed by Luminex. Mean of n=2 donors.
(§1) The CD20-targeting, effector-enhanced antibody obinutuzumab (Gazyva®) depletes B cells via FcγR signaling, and can be associated with a risk of infusion reaction characterized by cytokine release induced via FcγR signaling. To assess whether the mTOR inhibitor sirolimus, the JAK1/2 inhibitor ruxolitinib and the Src inhibitor dasatinib can prevent cytokine release induced via FcγR signaling, a whole blood assay using escalating doses of obinutuzumab in the presence and absence of sirolimus, ruxolitinib and dasatinib was conducted. A corresponding anti-CD20 IgG with a silent Fc portion (comprising “PGLALA” mutations L234A, L235A, P329G (Kabat EU numbering)) was used as a negative control (“PGLALA IgG”). In this assay, fresh whole blood is incubated together with concentrations of obinutuzumab ranging from 100 μg/mL to 0.1 μg/mL in the presence and absence of 100 nM sirolimus, 100 nM ruxolitinib and 100 nM dasatinib. To assess the impact of the different kinase inhibitors on cytokine release, serum was collected at 24 hours and cytokines were analyzed by Luminex. To assess the impact of the different kinase inhibitors on B cell depletion, blood was lysed at 48 hours and B cell depletion was measured by flow cytometry.

CD19+ B cell = experiment: Whole blood assay: obinutuzumab-induced B cell depletion measured by flow cytometry; assay type: cell-based; details: for target cell killing mediated by NK cell engaging antibody: summary statement of the description, no conditions given; for B cell depletion induced by obinutuzumab: 100 nM inhibitor, fresh whole blood, obinutuzumab 100 to 0.1 μg/mL, 48 hours, FIG. 1
Method: FIG. 1. Effect of 100 nM ruxolitinib (ruxo), 100 nM sirolimus (siro), 100 nM dasatinib (dasa) on obinutuzumab-induced CD19^+ B cell depletion in a whole blood assay. Fresh whole blood was incubated with 100, 10, 1 and 0.1 μg/mL obinutuzumab or PGLALA IgG in the presence and absence of 100 nM ruxolitinib, 100 nM sirolimus and 100 nM dasatinib for 48 hours. The PGLALA IgG has a silent Fc region and is a negative control. At 48 hours, blood was collected and lysed and the percentage of CD19^+ B cell among live cells was measured by flow cytometry. Mean of n=2 donors.
as §1

[2] = 100 nM inhibitor, fresh whole blood, obinutuzumab 100 to 0.1 μg/mL, serum at 24 hours
[3] = 100 nM inhibitor, fresh whole blood, obinutuzumab 100 to 0.1 μg/mL, serum at 24 hours, FIG. 2D, first IL-6 of the list
[4] = 100 nM inhibitor, fresh whole blood, obinutuzumab 100 to 0.1 μg/mL, serum at 24 hours, second IL-6 of the list

CO[C@H]1C[C@@H]2CC[C@@H](C)[C@@](O)(O2)C(=O)C(=O)N2CCCC[C@H]2C(=O)O[C@H]([C@H](C)C[C@@H]2CC[C@@H](OC(=O)C(C)(CO)CO)[C@H](OC)C2)CC(=O)[C@H](C)/C=C(\C)[C@@H](O)[C@@H](OC)C(=O)[C@H](C)C[C@H](C)/C=C/C=C/C=C/1C [temsirolimus, Temsirolimus]
cytokine release induced by an NK cell engaging antibody [1]: potently prevent
target cell killing mediated by NK cell engaging antibody (CD19+ B cell): retaining

CO[C@H]1C[C@@H]2CC[C@@H](C)[C@@](O)(O2)C(=O)C(=O)N2CCCC[C@H]2C(=O)O[C@H]([C@H](C)C[C@@H]2CC[C@@H](OCCO)[C@H](OC)C2)CC(=O)[C@H](C)/C=C(\C)[C@@H](O)[C@@H](OC)C(=O)[C@H](C)C[C@H](C)/C=C/C=C/C=C/1C [everolimus, Everolimus]
cytokine release induced by an NK cell engaging antibody [1]: potently prevent
target cell killing mediated by NK cell engaging antibody (CD19+ B cell): retaining

N#CC[C@H](C1CCCC1)n1cc(-c2ncnc3[nH]ccc23)cn1 [ruxolitinib, Ruxolitinib]
levels of IFN-γ [1, 2]: reduced
levels of TNF-α [1, 2]: reduced
levels of IL-6 [1, 3]: reduced
levels of MCP-1 [1, 2]: reduced
levels of IL-6 [1, 4]: reduced
cytokine release ([1]; 100 nM inhibitor): reduced cytokine release
cytokine release induced by an NK cell engaging antibody [1]: potently prevent
B cell depletion induced by obinutuzumab (CD19+ B cell): did not prevent
target cell killing mediated by NK cell engaging antibody (CD19+ B cell): retaining

Cc1nc(Nc2ncc(C(=O)Nc3c(C)cccc3Cl)s2)cc(N2CCN(CCO)CC2)n1 [dasatinib, N-(2-chloro-6-methylphenyl)-2[[6[4-(2-hydroxyethyl)-1-piperazinyl]-2-methyl-4-pyrimidinyl]amino]-5-thiazole carboxamide monohydrate]
levels of IFN-γ [1, 2]: strongly reduced
levels of IL-2 ([1]; 100 nM inhibitor, fresh whole blood, obinutuzumab 100 to 0.1 μg/mL, serum at 24 hours, FIG. 2B): strongly reduced
levels of TNF-α [1, 2]: strongly reduced
levels of IL-6 [1, 3]: strongly reduced
levels of MCP-1 [1, 2]: strongly reduced
levels of IL-6 [1, 4]: strongly reduced
potency in reducing cytokine release among the three classes of kinase inhibitors ([1]; comparison of Src, mTOR and JAK1/2 inhibitor at 100 nM): most potent
cytokine release ([1]; 100 nM inhibitor): reduced cytokine release
cytokine release induced by an NK cell engaging antibody [1]: potently prevent
B cell depletion induced by obinutuzumab (CD19+ B cell): did not prevent
target cell killing mediated by NK cell engaging antibody (CD19+ B cell): retaining

CO[C@H]1C[C@@H]2CC[C@@H](C)[C@@](O)(O2)C(=O)C(=O)N2CCCC[C@H]2C(=O)O[C@H]([C@H](C)C[C@@H]2CC[C@@H](O)[C@H](OC)C2)CC(=O)[C@H](C)/C=C(\C)[C@@H](O)[C@@H](OC)C(=O)[C@H](C)C[C@H](C)/C=C/C=C/C=C/1C [sirolimus, Sirolimus]
levels of IFN-γ [1, 2]: reduced
levels of TNF-α [1, 2]: reduced
levels of IL-6 [1, 3]: reduced
levels of MCP-1 [1, 2]: reduced
levels of IL-6 [1, 4]: reduced
cytokine release ([1]; 100 nM inhibitor): reduced cytokine release
cytokine release induced by an NK cell engaging antibody [1]: potently prevent
B cell depletion induced by obinutuzumab (CD19+ B cell): did not prevent
target cell killing mediated by NK cell engaging antibody (CD19+ B cell): retaining
